Experimental data taken from US12570650B2, “6-substituted pyridazine compounds as SMARCA2 and/or SMARCA4 degraders” (Aurigene Oncology Limited, priority 2020, dated 2026).

Key:
SMARCA4 = target: T1, SMARCA4 (Homo sapiens, UniProt P51532); test: SMARCA4 degradation in VCaP cells by Western blot; assay type: cell-based; details: 16 hours
T1 construct: Determination of SMARCA2 and SMARCA4 Degradation in VCaP Cells by Western Blot; endogenous in cells; host or cells: VCaP (ATCC CRL-2876)
Method: On the third day, compounds of present invention were added to cells from 10 mM stocks made in DMSO (Sigma Cat no. D2650). Each concentration of compound was tested with DMSO not exceeding final percentage of 0.3 in the cells. […] Equal amount of protein was loaded on SDS PAGE gel for electrophoresis. […] Percentage of SMARCA2 or SMARCA4 degradation was calculated using formula % Degradation=100−(normalized band intensity in treated sample/normalized band intensity in DMSO sample)*100.

SMARCA2 = target: T2, SMARCA2 (Homo sapiens, UniProt P51531); test: SMARCA2 degradation in VCaP cells by Western blot; assay type: cell-based; details: 16 hours
T2 construct: Determination of SMARCA2 and SMARCA4 Degradation in VCaP Cells by Western Blot; endogenous in cells; host or cells: VCaP (ATCC CRL-2876)
Method: Example-P2: Determination of SMARCA2 and SMARCA4 Degradation in VCaP Cells by Western Blot
VCaP (ATCC CRL-2876) was plated in 6 well plates using complete Dulbecco's Modified Eagle's Medium. On the third day, compounds of present invention were added to cells from 10 mM stocks made in DMSO (Sigma Cat no. D2650). Each concentration of compound was tested with DMSO not exceeding final percentage of 0.3 in the cells. Cells were incubated with the compound for 16 hours followed by harvesting with 1×RIPA lysis buffer (Thermo Fischer, catalogue number #89900) containing protease inhibitor cocktail (Sigma catalogue number #P-8340). Equal amount of protein was loaded on SDS PAGE gel for electrophoresis. Western blot was carried out for detection of either SMARCA2 (Cell signalling technologies, catalogue number #11966) or SMARCA4 antibody (Cell signalling technologies, catalogue number #52251). Beta-Tubulin antibody (Cell signalling technologies, catalogue number #86298) was used as loading control. Percentage of SMARCA2 or SMARCA4 degradation was calculated using formula % Degradation=100−(normalized band intensity in treated sample/normalized band intensity in DMSO sample)*100.

T2 sequence (P51531 whole entry): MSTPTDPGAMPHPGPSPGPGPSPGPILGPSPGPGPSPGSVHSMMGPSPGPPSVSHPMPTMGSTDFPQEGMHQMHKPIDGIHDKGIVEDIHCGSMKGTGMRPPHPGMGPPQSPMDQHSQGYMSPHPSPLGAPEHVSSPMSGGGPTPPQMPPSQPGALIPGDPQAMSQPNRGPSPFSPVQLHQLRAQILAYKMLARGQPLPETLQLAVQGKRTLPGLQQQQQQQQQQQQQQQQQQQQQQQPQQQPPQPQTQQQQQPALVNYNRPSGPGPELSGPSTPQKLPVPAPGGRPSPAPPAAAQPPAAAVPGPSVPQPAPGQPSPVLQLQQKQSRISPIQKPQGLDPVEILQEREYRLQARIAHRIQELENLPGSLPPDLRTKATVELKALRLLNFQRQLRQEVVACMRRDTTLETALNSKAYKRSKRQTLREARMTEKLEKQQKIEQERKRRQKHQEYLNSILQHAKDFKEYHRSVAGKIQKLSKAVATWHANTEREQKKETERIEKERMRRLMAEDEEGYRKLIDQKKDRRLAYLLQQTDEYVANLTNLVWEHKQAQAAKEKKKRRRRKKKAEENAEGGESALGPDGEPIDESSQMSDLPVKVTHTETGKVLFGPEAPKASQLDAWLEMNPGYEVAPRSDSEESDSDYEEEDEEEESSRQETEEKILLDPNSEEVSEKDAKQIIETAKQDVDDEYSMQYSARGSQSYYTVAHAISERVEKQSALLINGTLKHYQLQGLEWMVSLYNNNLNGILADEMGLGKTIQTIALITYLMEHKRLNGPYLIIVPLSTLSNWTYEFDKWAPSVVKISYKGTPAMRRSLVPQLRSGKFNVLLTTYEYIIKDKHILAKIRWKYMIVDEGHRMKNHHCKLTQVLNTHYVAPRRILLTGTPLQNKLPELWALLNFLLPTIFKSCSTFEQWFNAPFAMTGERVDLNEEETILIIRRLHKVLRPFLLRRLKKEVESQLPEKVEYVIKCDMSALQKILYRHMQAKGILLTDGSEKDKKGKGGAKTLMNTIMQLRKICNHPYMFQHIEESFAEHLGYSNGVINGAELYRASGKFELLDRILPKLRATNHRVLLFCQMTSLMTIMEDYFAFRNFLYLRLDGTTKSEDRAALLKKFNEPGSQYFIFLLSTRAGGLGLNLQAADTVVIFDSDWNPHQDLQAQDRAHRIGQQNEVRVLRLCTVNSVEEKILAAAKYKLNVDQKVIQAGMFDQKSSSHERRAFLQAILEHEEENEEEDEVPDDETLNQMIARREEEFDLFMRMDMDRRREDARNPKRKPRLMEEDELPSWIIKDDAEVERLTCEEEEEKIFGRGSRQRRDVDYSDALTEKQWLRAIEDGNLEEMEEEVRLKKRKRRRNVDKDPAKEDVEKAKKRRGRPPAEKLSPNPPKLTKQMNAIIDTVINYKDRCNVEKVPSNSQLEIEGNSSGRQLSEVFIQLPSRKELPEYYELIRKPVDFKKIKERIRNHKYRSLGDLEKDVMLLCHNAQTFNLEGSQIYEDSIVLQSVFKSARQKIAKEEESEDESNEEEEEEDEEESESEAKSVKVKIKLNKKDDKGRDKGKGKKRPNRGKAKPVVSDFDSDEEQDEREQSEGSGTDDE
T1 sequence (P51532 whole entry): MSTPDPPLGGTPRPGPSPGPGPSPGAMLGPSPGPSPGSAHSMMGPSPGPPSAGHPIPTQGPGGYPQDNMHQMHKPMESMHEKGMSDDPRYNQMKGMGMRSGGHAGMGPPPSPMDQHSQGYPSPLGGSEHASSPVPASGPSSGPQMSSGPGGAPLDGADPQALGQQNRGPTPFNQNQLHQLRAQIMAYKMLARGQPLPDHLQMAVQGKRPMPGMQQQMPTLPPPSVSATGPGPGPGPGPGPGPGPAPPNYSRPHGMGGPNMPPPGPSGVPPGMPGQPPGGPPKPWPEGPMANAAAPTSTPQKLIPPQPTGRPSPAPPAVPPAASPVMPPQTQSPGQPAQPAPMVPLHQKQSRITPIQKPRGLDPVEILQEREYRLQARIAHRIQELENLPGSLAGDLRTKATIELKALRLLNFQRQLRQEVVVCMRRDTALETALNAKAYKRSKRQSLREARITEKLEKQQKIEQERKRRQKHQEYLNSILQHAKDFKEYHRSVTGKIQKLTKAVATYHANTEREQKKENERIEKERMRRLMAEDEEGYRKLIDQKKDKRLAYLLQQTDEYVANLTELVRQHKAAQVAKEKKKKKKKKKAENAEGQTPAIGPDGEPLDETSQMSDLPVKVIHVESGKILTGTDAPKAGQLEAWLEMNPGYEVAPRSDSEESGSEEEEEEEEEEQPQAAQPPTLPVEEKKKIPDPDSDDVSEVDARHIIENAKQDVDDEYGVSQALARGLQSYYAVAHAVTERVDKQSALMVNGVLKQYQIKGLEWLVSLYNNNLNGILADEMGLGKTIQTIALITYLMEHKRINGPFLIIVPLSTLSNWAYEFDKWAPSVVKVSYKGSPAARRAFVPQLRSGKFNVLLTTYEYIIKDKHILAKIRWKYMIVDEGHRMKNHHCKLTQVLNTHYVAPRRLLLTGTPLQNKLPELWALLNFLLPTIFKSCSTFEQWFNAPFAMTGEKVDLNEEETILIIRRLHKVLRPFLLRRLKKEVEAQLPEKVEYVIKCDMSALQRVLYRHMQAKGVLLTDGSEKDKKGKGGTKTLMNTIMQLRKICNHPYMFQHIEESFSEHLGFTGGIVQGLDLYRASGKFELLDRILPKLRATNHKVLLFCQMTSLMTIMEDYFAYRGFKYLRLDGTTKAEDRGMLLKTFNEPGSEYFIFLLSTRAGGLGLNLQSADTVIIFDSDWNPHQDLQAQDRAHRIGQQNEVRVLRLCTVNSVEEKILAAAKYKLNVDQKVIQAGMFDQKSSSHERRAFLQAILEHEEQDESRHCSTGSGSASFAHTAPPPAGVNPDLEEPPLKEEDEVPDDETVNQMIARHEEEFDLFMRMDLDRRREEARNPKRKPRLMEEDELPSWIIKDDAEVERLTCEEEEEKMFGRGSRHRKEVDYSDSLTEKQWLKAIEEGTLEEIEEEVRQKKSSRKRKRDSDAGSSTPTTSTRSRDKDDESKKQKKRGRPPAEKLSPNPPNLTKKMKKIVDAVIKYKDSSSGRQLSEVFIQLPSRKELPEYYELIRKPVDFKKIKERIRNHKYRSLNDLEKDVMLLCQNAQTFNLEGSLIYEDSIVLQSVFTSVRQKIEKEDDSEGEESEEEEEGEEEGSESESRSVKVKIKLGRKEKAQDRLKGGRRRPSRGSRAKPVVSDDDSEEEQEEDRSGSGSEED

Percent degradation (at 100 nM) SMARCA4 (SMARCA4) [%]	Percent degradation (at 100 nM) SMARCA2 (SMARCA2) [%]	Structure (SMILES)
48	93	Cc1ncsc1-c1ccc(C(CN(C)C)NC(=O)[C@@H]2C[C@@H](O)CN2C(=O)[C@@H](NC(=O)CN2CCN(c3ccc(-c4cnnc(-c5ccccc5O)c4)cc3)CC2)C(C)(C)C)cc1 (stereo partly drawn) [Compound 49, (2S,4R)-N-(2-(dimethylamino)-1-(4-(4-methylthiazol-5-yl)phenyl)ethyl)-4-hydroxy-1-((S)-2-(2-(4-(4-(6-(2-hydroxyphenyl)pyridazin-4-yl)phenyl)piperazin-1-yl)acetamido)-3,3-dimethylbutanoyl)pyrrolidine-2-carboxamide]
21	90	Cc1ncsc1-c1ccc([C@H](CO)NC(=O)[C@@H]2C[C@@H](O)CN2C(=O)[C@@H](NC(=O)CN2CCN(c3ccc(-c4cnnc(-c5ccccc5O)c4)cc3)CC2)C(C)(C)C)cc1 [Compound 48, (2S,4R)-4-hydroxy-N-((R)-2-hydroxy-1-(4-(4-methylthiazol-5-yl)phenyl)ethyl)-1-((S)-2-(2-(4-(4-(6-(2-hydroxyphenyl)pyridazin-4-yl)phenyl)piperazin-1-yl)acetamido)-3,3-dimethylbutanoyl)pyrrolidine-2-carboxamide]
26	45	Cc1ncsc1-c1ccc([C@H](C)NC(=O)[C@@H]2C[C@@H](O)CN2C(=O)[C@@H](NC(=O)CN2CCN(c3ccc(-c4cnnc(-c5ccccc5C(F)F)c4)cc3)CC2)C(C)(C)C)cc1 [Compound 37, (2S,4R)-1-((S)-2-(2-(4-(4-(6-(2-(difluoromethyl)phenyl)pyridazin-4-yl)phenyl)piperazin-1-yl)acetamido)-3,3-dimethylbutanoyl)-4-hydroxy-N-((S)-1-(4-(4-methylthiazol-5-yl)phenyl)ethyl)pyrrolidine-2-carboxamide]
3	6	Cc1ncsc1-c1ccc([C@H](C)NC(=O)[C@@H]2C[C@@H](O)CN2C(=O)[C@@H](NC(=O)CN2CCN(c3ccc(-c4cnnc(-c5cccc6ccoc56)c4)cc3)CC2)C(C)(C)C)cc1 [Compound 40, (2S,4R)-1-((S)-2-(2-(4-(4-(6-(benzofuran-7-yl)pyridazin-4-yl)phenyl)piperazin-1-yl)acetamido)-3,3-dimethylbutanoyl)-4-hydroxy-N-((S)-1-(4-(4-methylthiazol-5-yl)phenyl)ethyl)pyrrolidine-2-carboxamide]
6	22	Cc1ncsc1-c1ccc([C@H](C)NC(=O)[C@@H]2C[C@@H](O)CN2C(=O)C(c2cc(OCCN(C)c3ccc(-c4cnnc(-c5ccccc5O)c4)cc3)no2)C(C)C)cc1 (mixture of isomers) [Compound 44, (2S,4R)-4-hydroxy-1-(2-(3-(2-((4-(6-(2-hydroxyphenyl)pyridazin-4-yl)phenyl)(methyl)amino)ethoxy)isoxazol-5-yl)-3-methylbutanoyl)-N-((S)-1-(4-(4-methylthiazol-5-yl)phenyl)ethyl)pyrrolidine-2-carboxamide]
17	46	Cc1ncsc1-c1ccc([C@H](C)NC(=O)[C@@H]2C[C@@H](O)CN2C(=O)[C@@H](NC(=O)CN2CCN(c3ccc(-c4cnnc(-c5cccc6cc[nH]c56)c4)cc3)CC2)C(C)(C)C)cc1 [Compound 39, (2S,4R)-1-((S)-2-(2-(4-(4-(6-(1H-indol-7-yl)pyridazin-4-yl)phenyl)piperazin-1-yl)acetamido)-3,3-dimethylbutanoyl)-4-hydroxy-N-((S)-1-(4-(4-methylthiazol-5-yl)phenyl)ethyl)pyrrolidine-2-carboxamide]
22	12	Cc1ncsc1-c1ccc([C@H](C)NC(=O)[C@@H]2C[C@@H](O)CN2C(=O)[C@@H](NC(=O)CN2CCN(c3ccc(-c4cnnc(-c5cccc6cn[nH]c56)c4)cc3)CC2)C(C)(C)C)cc1 [Compound 41, (2S,4R)-1-((S)-2-(2-(4-(4-(6-(1H-indazol-7-yl)pyridazin-4-yl)phenyl)piperazin-1-yl)acetamido)-3,3-dimethylbutanoyl)-4-hydroxy-N-((S)-1-(4-(4-methylthiazol-5-yl)phenyl)ethyl)pyrrolidine-2-carboxamide]
58	81	Cc1ncsc1-c1ccc([C@H](C)NC(=O)[C@@H]2C[C@@H](O)CN2C(=O)[C@@H](NC(=O)CCCCOc2ccc(-c3cnnc(-c4ccccc4O)c3)cc2)C(C)(C)C)cc1 [Compound 34, (2S,4R)-4-hydroxy-1-((S)-2-(5-(4-(6-(2-hydroxyphenyl)pyridazin-4-yl)phenoxy)pentanamido)-3,3-dimethylbutanoyl)-N-((S)-1-(4-(4-methylthiazol-5-yl)phenyl)ethyl)pyrrolidine-2-carboxamide]

The next lines start with the compound.

Structure (SMILES)	Percent degradation (at 100 nM) SMARCA4 (SMARCA4) [%]	Percent degradation (at 100 nM) SMARCA2 (SMARCA2) [%]
Cc1ncsc1-c1ccc([C@H](C)NC(=O)[C@@H]2C[C@@H](O)CN2C(=O)[C@@H](NC(=O)CN2CCN(c3ccc(-c4cnnc(-c5cc(F)ccc5O)c4)cc3)CC2)C(C)(C)C)cc1 [Compound 4, (2S,4R)-1-((S)-2-(2-(4-(4-(6-(5-fluoro-2-hydroxyphenyl)pyridazin-4-yl)phenyl)piperazin-1-yl)acetamido)-3,3-dimethylbutanoyl)-4-hydroxy-N-((S)-1-(4-(4-methylthiazol-5-yl)phenyl)ethyl)pyrrolidine-2-carboxamide]	0	81
Cc1ncsc1-c1ccc([C@H](C)NC(=O)[C@@H]2C[C@@H](O)CN2C(=O)[C@@H](NC(=O)CN2CCC(Oc3ccc(-c4cnnc(-c5ccccc5O)c4)cc3)CC2)C(C)(C)C)cc1 [Compound 19, (2S,4R)-4-hydroxy-1-((S)-2-(2-(4-(4-(6-(2-hydroxyphenyl)pyridazin-4-yl)phenoxy)piperidin-1-yl)acetamido)-3,3-dimethylbutanoyl)-N-((S)-1-(4-(4-methylthiazol-5-yl)phenyl)ethyl)pyrrolidine-2-carboxamide]	0	88
Cc1ncsc1-c1ccc([C@H](C)NC(=O)[C@@H]2C[C@@H](O)CN2C(=O)[C@@H](NC(=O)CCN2CCN(c3ccc(-c4cnnc(-c5ccccc5O)c4)cc3)CC2)C(C)(C)C)cc1 [Compound 8, (2S,4R)-4-hydroxy-1-((S)-2-(3-(4-(4-(6-(2-hydroxyphenyl)pyridazin-4-yl)phenyl)piperazin-1-yl)propanamido)-3,3-dimethylbutanoyl)-N-((S)-1-(4-(4-methylthiazol-5-yl)phenyl)ethyl)pyrrolidine-2-carboxamide]	20	84
Cc1ncsc1-c1ccc([C@H](C)NC(=O)[C@@H]2C[C@@H](O)CN2C(=O)[C@@H](NC(=O)CN2CCN(c3ccc(-c4cnnc(-c5cnn(C)c5)c4)cc3)CC2)C(C)(C)C)cc1 [Compound 9, (2S,4R)-1-((S)-3,3-dimethyl-2-(2-(4-(4-(6-(1-methyl-1H-pyrazol-4-yl)pyridazin-4-yl)phenyl)piperazin-1-yl)acetamido)butanoyl)-4-hydroxy-N-((S)-1-(4-(4-methylthiazol-5-yl)phenyl)ethyl)pyrrolidine-2-carboxamide]	14	0
Cc1ncsc1-c1ccc([C@H](C)NC(=O)[C@@H]2C[C@@H](O)CN2C(=O)[C@@H](NC(=O)CN2CCN(c3ccc(-c4cnnc(-c5ccccc5O)c4)cc3F)CC2)C(C)(C)C)cc1 [Compound 26, (2S,4R)-1-((S)-2-(2-(4-(2-fluoro-4-(6-(2-hydroxyphenyl)pyridazin-4-yl)phenyl)piperazin-1-yl)acetamido)-3,3-dimethylbutanoyl)-4-hydroxy-N-((S)-1-(4-(4-methylthiazol-5-yl)phenyl)ethyl)pyrrolidine-2-carboxamide]	0	89
Cc1ncsc1-c1ccc([C@H](C)NC(=O)[C@@H]2C[C@@H](O)CN2C(=O)C(c2cc(-c3ccc(-c4cnnc(-c5ccccc5O)c4)cc3)no2)C(C)C)cc1 (mixture of isomers) [Compound 1, (2S,4R)-4-hydroxy-1-(2-(3-(4-(6-(2-hydroxyphenyl)pyridazin-4-yl)phenyl)isoxazol-5-yl)-3-methylbutanoyl)-N-((S)-1-(4-(4-methylthiazol-5-yl)phenyl)ethyl)pyrrolidine-2-carboxamide]	30	0
Cc1ncsc1-c1ccc([C@H](C)NC(=O)[C@@H]2C[C@@H](O)CN2C(=O)[C@@H](NC(=O)CN2CCN(c3ccc(-c4cnnc(Cl)c4)cc3)CC2)C(C)(C)C)cc1 [Compound 3, (2S,4R)-1-((S)-2-(2-(4-(4-(6-chloropyridazin-4-yl)phenyl)piperazin-1-yl)acetamido)-3,3-dimethylbutanoyl)-4-hydroxy-N-((S)-1-(4-(4-methylthiazol-5-yl)phenyl)ethyl)pyrrolidine-2-carboxamide]	47	20
